As usually defined, the melting point is the temperature, or range, at which the solid turns liquid. Broadly, the inhibition is the relative decrease from the control value, in per cent.

Our source for the melting point and inhibition values is patent US8673940B2, “Compounds for the treatment of diseases associated with amyloid or amyloid-like proteins” (AC Immune SA, priority 2006, dated 2014).

For data set [1], the target named is T1, amyloid beta (Aβ) 1-42 peptide (Homo sapiens, UniProt P05067).
T1 construct: amyloid beta (Aβ) 1-42 peptide; purchased Bachem
T1 sequence (P05067 672-713 limits assumed): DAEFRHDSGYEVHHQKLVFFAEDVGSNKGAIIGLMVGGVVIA
Put plainly: Thioflavin T spectrofluorescence assay, inhibition of Aβ1-42 aggregation. Type of data set: biochemical. Here is the method:
A number of the small molecules were tested for their capacity to inhibit the aggregation of amyloid beta (Aβ) 1-42 peptide using a thioflavin T spectrofluorescence assay.
Aβ1-42 lyophilized powder (Bachem) was reconstituted in hexafluoroisopropanol (HFIP) to 1 mM. The peptide solution was sonicated for 15 min at room temperature, agitated overnight, and aliquots were placed into non-siliconized microcentrifuge tubes. The HFIP was then evaporated under a stream of argon. The resulting peptide film was dried under vacuum for 10 min, tightly sealed and stored at −80° C. until used.
To assay for the small molecule-mediated inhibition of Aβ1-42 aggregation, the small molecules were dissolved before each experiment in anhydrous dimethyl sulfoxide (DMSO, Sigma-Aldrich) to reach a concentration of 7.4 mM. Aβ1-42 peptide film was dissolved in DMSO to reach 400 μM. Assay solution in PBS buffer was prepared in non-siliconized incubation tubes to reach the following concentrations: 330 μM small molecule, 33 μM Aβ1-42, 10 μM thioflavin T (ThT), and 12.8% DMSO. Therefore, the final molar ratio of small molecule to Aβ1-42 was 10:1. A positive control without a small molecule was prepared to measure maximum RFU. A negative control without Aβ1-42 was prepared for each small molecule. 3-Aminopyrazole trimer (Trimer) was tested in all assays to ascertain reproducibility between independent experiments. The solutions were incubated for 24 hrs at 37° C., and the spectrofluorescence (relative fluorescence units; RFU) was read in six replicates in black 384-well assay plates (Perkin-Elmer) on a Perkin-Elmer FluoroCount spectrofluorometer. Inhibition of aggregation is expressed as mean % inhibition or ±1 standard deviation (SD) according to the following equation: […]
Cut-off criterium for the selection of functional molecules was defined at 50% inhibition capacity.
The small molecules were evaluated for their capacity to mediate inhibition of Aβ1-42 aggregation at a 10:1 small molecule to Aβ1-42 molar ratio. The results are expressed as mean±standard deviation of two independent experiments.

The mark [2] stands for this setting: 330 μM small molecule, 33 μM Aβ1-42 (10:1 molar ratio), 24 hrs at 37° C., mean ± SD of two independent experiments, read-out: % inhibition.

Counter-ions that a name gives are not always drawn. Like-named read-outs stand apart in the source and are kept apart here.

The molecule `CNc1ncc(CNc2nc(-c3ccc(Cl)cc3)cs2)s1` (as salt: hydrochloride) [Compound 2aa, 4-(4-Chlorophenyl)-N-((2-(methylamino)thiazol-5-yl)methyl)thiazol-2-amine dihydrochloride] came in with a melting point of 122 to 123 °C.

Turning to `CCCNc1ncc(CNc2ncc(CNc3nc(-c4ccc(C)cc4)cs3)s2)s1` (as salt: hydrochloride) [Compound 2ad, N-Propyl-5-((5-((4-p-tolylthiazol-2-ylamino)methyl)thiazol-2-ylamino)methyl)thiazol-2-amine trihydrochloride], the melting point is > 135 °C (dec.).

With `c1ccc(CNc2ncc(CNc3nc(Cc4ccccc4)cs3)s2)cc1` (as salt: hydrochloride) [Compound 2ae, 4-Benzyl-N-((2-(benzylamino)thiazol-5-yl)methyl)thiazol-2-amine dihydrochloride], the melting point lay in the range of 78 to 79 °C.

For `CNc1ncc(CNc2nc(Cc3ccccc3)cs2)s1` (as salt: hydrochloride) [Compound 2af, 4-Benzyl-N-((2-(methylamino)thiazol-5-yl)methyl)thiazol-2-amine dihydrochloride], the melting point fell in the range of 126 to 127 °C.

The molecule `c1ccc(CNc2ncc(CNc3ncc(Cc4ccccc4)s3)s2)cc1` (as salt: hydrochloride) [Compound 2ag, 5-Benzyl-N-((2-(benzylamino)thiazol-5-yl)methyl)thiazol-2-amine dihydrochloride] returned a melting point of 96 to 97 °C.

In turn, `CNc1ncc(CNc2ncc(Cc3ccccc3)s2)s1` (as salt: hydrochloride) [Compound 2ah, 5-Benzyl-N-((2-(methylamino)thiazol-5-yl)methyl)thiazol-2-amine dihydrochloride] showed a melting point of 76 to 77 °C.

`c1ccc(CNc2ncc(CNc3nc(-c4cccs4)cs3)s2)cc1` (as salt: hydrochloride) [Compound 2al, N-Benzyl-5-((4-(thiophen-2-yl)thiazol-2-ylamino)methyl)thiazol-2-amine dihydrochloride]: the melting point was 97 to 99 °C.

In the case of `Cc1ccc(-c2cnc(NCc3cnc(NCc4ccccc4)s3)s2)cc1` (as salt: hydrochloride) [Compound 2h, N-Benzyl-5-((5-p-tolylthiazol-2-ylamino)methyl)thiazol-2-amine dihydrochloride], the melting point lay in the range of 105 to 106 °C.

`Cc1ccc(-c2csc(NCc3cnc(NCc4ccccc4)s3)n2)cc1` (as salt: hydrochloride) [Compound 2j, N-Benzyl-5-((4-p-tolylthiazol-2-ylamino)methyl)thiazol-2-amine dihydrochloride] returned a melting point of 106 to 108 °C.

For `Fc1ccc(-c2cc(NCc3cnc(NCc4ccccc4)s3)n[nH]2)cc1` (as salt: hydrochloride) [Compound 2k, N-Benzyl-5-((5-(4-fluorophenyl)-1H-pyrazol-3-ylamino)methyl)thiazol-2-amine dihydrochloride], the melting point was in the range of 78 to 80 °C.

Molecule `CNc1ncc(CNc2nc(-c3ccc(C)cc3)cs2)s1` (as salt: hydrochloride) [Compound 2n, N-Methyl-5-((4-p-tolylthiazol-2-ylamino)methyl)thiazol-2-amine dihydrochloride] returned a melting point of 114 to 116 °C.

With `Nc1cccc(NCc2ccc(NCc3ccccc3)nc2)n1` (as salt: hydrochloride) [Compound 2y, N^2-((6-(benzylamino)pyridin-3-yl)methyl)pyridine-2,6-diamine], the melting point fell in the range of 261 to 262 °C.

In turn, `Cc1ccc(-c2cc(CNc3cc(-c4ccc(C)cc4)[nH]n3)n[nH]2)cc1` [Compound 2a, 5-p-Tolyl-N-((5-p-tolyl-1H-pyrazol-3-yl)methyl)-1H-pyrazol-3-amine dihydrochloride] showed an inhibition at 330 µM in data set [1] (24 h) of 65.3 ± 2.6%.

In the case of `CNc1ncc(CNc2nc(-c3ccc(Cl)cc3)cs2)s1` [Compound 2aa, 4-(4-Chlorophenyl)-N-((2-(methylamino)thiazol-5-yl)methyl)thiazol-2-amine dihydrochloride], the inhibition at 330 µM in data set [1] (24 h) worked out at 41.5 ± 9.6%.

As for `c1ccc(CNc2cccc(CNc3cc(-c4cccs4)[nH]n3)n2)cc1` [Compound 2ac, N-benzyl-6-((5-(thiophen-2-yl)-1H-pyrazol-3-ylamino)methyl)pyridin-2-amine], the inhibition at 330 µM in data set [1] (setting [2]) was 78.5 ± 1.3%.

On to `CCCNc1ncc(CNc2ncc(CNc3nc(-c4ccc(C)cc4)cs3)s2)s1` [Compound 2ad, N-Propyl-5-((5-((4-p-tolylthiazol-2-ylamino)methyl)thiazol-2-ylamino)methyl)thiazol-2-amine trihydrochloride], for which testing at 330 µM in data set [1] (24 h) gave an inhibition of 82.1 ± 2.2%.

With `c1ccc(CNc2ncc(CNc3nc(Cc4ccccc4)cs3)s2)cc1` [Compound 2ae, 4-Benzyl-N-((2-(benzylamino)thiazol-5-yl)methyl)thiazol-2-amine dihydrochloride], in data set [1] (24 h), the inhibition at 330 µM came to 51.2 ± 1.5%.

In data set [1] (24 h), `CNc1ncc(CNc2nc(Cc3ccccc3)cs2)s1` [Compound 2af, 4-Benzyl-N-((2-(methylamino)thiazol-5-yl)methyl)thiazol-2-amine dihydrochloride] displayed an inhibition at 330 µM of 41.3 ± 9.2%.

Take `c1ccc(CNc2ncc(CNc3ncc(Cc4ccccc4)s3)s2)cc1` [Compound 2ag, 5-Benzyl-N-((2-(benzylamino)thiazol-5-yl)methyl)thiazol-2-amine dihydrochloride]: in data set [1] (24 h), at 330 µM the inhibition was 34.2 ± 1.6%.

Turning to `CNc1ncc(CNc2ncc(Cc3ccccc3)s2)s1` [Compound 2ah, 5-Benzyl-N-((2-(methylamino)thiazol-5-yl)methyl)thiazol-2-amine dihydrochloride], 330 µM produced 35.7 ± 5.6% inhibition in data set [1] (24 h).

Take `Cc1ccc(-c2cc(CNc3cc(CNc4cc(-c5ccc(C)cc5)[nH]n4)n[nH]3)n[nH]2)cc1` [Compound 2ai, 5-p-Tolyl-N-((5-((5-p-tolyl-1H-pyrazol-3-yl)methylamino)-1H-pyrazol-3-yl)methyl)-1H-pyrazol-3-amine trihydrochloride]: the inhibition at 330 µM in data set [1] (24 h) worked out at 84.8%.

In data set [1] (24 h), `c1ccc(CNc2ncc(CNc3nc(-c4cccs4)cs3)s2)cc1` [Compound 2al, N-Benzyl-5-((4-(thiophen-2-yl)thiazol-2-ylamino)methyl)thiazol-2-amine dihydrochloride] came in with an inhibition at 330 µM of 66.1 ± 15.4%.

The molecule `Cc1ccc(-c2cnc(NCc3cnc(NCc4ccccc4)s3)s2)cc1` [Compound 2h, N-Benzyl-5-((5-p-tolylthiazol-2-ylamino)methyl)thiazol-2-amine dihydrochloride] displayed an inhibition at 330 µM in data set [1] (24 h) of 31.9 ± 10.1%.

In turn, `Cc1ccc(-c2csc(NCc3cnc(NCc4ccccc4)s3)n2)cc1` [Compound 2j, N-Benzyl-5-((4-p-tolylthiazol-2-ylamino)methyl)thiazol-2-amine dihydrochloride] had an inhibition at 330 µM in data set [1] (24 h) of 70.7 ± 6.8%.

Regarding `Fc1ccc(-c2cc(NCc3cnc(NCc4ccccc4)s3)n[nH]2)cc1` [Compound 2k, N-Benzyl-5-((5-(4-fluorophenyl)-1H-pyrazol-3-ylamino)methyl)thiazol-2-amine dihydrochloride], in data set [1] (24 h), testing at 330 µM gave an inhibition of 81.2 ± 7.3%.

As to `CNc1ncc(CNc2nc(-c3ccc(C)cc3)cs2)s1` [Compound 2n, N-Methyl-5-((4-p-tolylthiazol-2-ylamino)methyl)thiazol-2-amine dihydrochloride], the inhibition at 330 µM in data set [1] (24 h) was 27.8 ± 9.9%.

In data set [1] (24 h), `CNc1ncc(CNc2ncc(-c3ccc(C)cc3)s2)s1` [Compound 2o, N-Methyl-5-((5-p-tolylthiazol-2-ylamino)methyl)thiazol-2-amine dihydrochloride] registered an inhibition at 330 µM of 39.6 ± 2.8%.

Molecule `c1ccc(Nc2ncc(CNc3nccs3)s2)nc1` [Compound 2p, N-(Pyridin-2-yl)-5-((thiazol-2-ylamino)methyl)thiazol-2-amine trihydrochloride] had an inhibition at 330 µM in data set [1] (24 h) of 43.6 ± 2.1%.

On to `Fc1ccc(NCc2ccc(NCc3ccccc3)nc2)nc1` [Compound 2q, N-Benzyl-5-((5-fluoropyridin-2-ylamino)methyl)pyridin-2-amine], for which the inhibition at 330 µM in data set [1] (setting [2]) is 45 ± 8.3%.

For `Fc1ccc(-c2cc(CNc3cccc(NCc4ccccc4)n3)n[nH]2)cc1` [Compound 2s, N^2-benzyl-N^6-((5-(4-fluorophenyl)-1H-pyrazol-3-yl)methyl)pyridine-2,6-diamine], the inhibition at 330 µM in data set [1] (setting [2]) is 55.1 ± 6.4%.

In the case of `CNc1ncc(CNc2nccs2)s1` [Compound 2w, N-Methyl-5-((thiazol-2-ylamino)methyl)thiazole-2-amine dihydrochloride], the inhibition at 330 µM in data set [1] (24 h) is 13.9 ± 12.9%.

As to `Nc1cccc(NCc2ccc(NCc3ccccc3)nc2)n1` [Compound 2y, N^2-((6-(benzylamino)pyridin-3-yl)methyl)pyridine-2,6-diamine], in data set [1] (setting [2]), the inhibition at 330 µM came to 57 ± 15.9%.

Turning to `Cc1ccc(-c2csc(NCc3cnc(Nc4ccccn4)s3)n2)cc1` [Compound 2z, N-(Pyridin-2-yl)-5-((4-p-tolylthiazol-2-ylamino)methyl)thiazol-2-amine trihydrochloride], 330 µM produced 58.7 ± 3% inhibition in data set [1] (24 h).
